In PubChem BioAssay (NCI):
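Five concentrations, 48 hours, 96-well plates. TGI is the concentration that stops growth completely.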

Key:
Test in all cases: NCI tumour cell line growth inhibition, 48 h
[1] = test system: EKVX NSCLC
[2] = test system: DMS 273 small cell lung
[3] = test system: NCI-H460 lung
[4] = test system: K-562 leukemia
[5] = test system: SK-MEL-2 melanoma
[6] = test system: M19-MEL melanoma
[7] = test system: HOP-92 NSCLC
[8] = test system: MDA-MB-231 breast
[9] = test system: A549 NSCLC
[10] = test system: NCI-H23 lung
[11] = test system: RXF 393 renal

COc1c(O)c(O)cc2c1-c1ccc(OC)c(=O)cc1C(NC(C)=O)CC2 (stereo unspecified)
TGI [1]: 98.2 µM | TGI [2]: > 59.8 µM | TGI [3]: 50.9 µM | TGI [4]: 19.2 µM | TGI [5]: 50.6 µM | TGI [6]: 23.7 µM | TGI [7]: 17.8 µM | TGI [8]: > 59.4 µM | TGI [9]: > 100 µM | TGI [10]: 34.2 µM | TGI [11]: > 41.2 µM
